Measured values reported in ChEMBL document CHEMBL2321853, “Novel acylethanolamide derivatives that modulate body weight through enhancement of hypothalamic pro-opiomelanocortin (POMC) and/or decreased neuropeptide Y (NPY)” (J Med Chem, 2013).
The source made the active and inactive calls. No cut-off for these calls is given here.

Tests used:
Hypothalamus = assay: Effect on POMC gene expression in Sabra mouse hypothalamus assessed as change in mRNA level at 1 mg/kg, ip administered on day 8, 9, 10, 11, 14, 18, 24 and 32 by RT-PCR analysis relative to GAPDH; format: functional; settings: route intraperitoneal
Mus musculus [1] = assay: Toxicity in Sabra mouse assessed as morphological changes in glial cells at 1 mg/kg, ip administered on day 8, 9, 10, 11, 14, 18, 24 and 32 by hematoxylin and eosin staining-based histopathological analysis; format: organism-based; set-up: dose 1 mg/kg, route intraperitoneal; settings: in vivo
Mus musculus [2] = assay: Antiobesity activity in Sabra mouse assessed as reduction in body weight at 10 mg/kg, administered for 6 to 51 days via oral gavage measured on day 52 relative to control; format: functional, organism-based; set-up: dose 10 mg/kg
Mus musculus [3] = assay: Enhancement of cognitive function C57BL/6 mouse assessed as reduction food consumption at 1 mg/kg, ip administered on day 3, 6, 8, 9, 10 measured on day 10; format: functional, organism-based; set-up: dose 1 mg/kg
Mus musculus [4] = assay: Antiobesity activity in Sabra mouse assessed as reduction in body weight at 1 mg/kg, ip administered on day 6 to 10 measured on day 16 relative to control; format: functional; set-up: scale not given: the % may be the effect or the level left; settings: route intraperitoneal

Structure (SMILES): CCCCCCCC/C=C\CCCCCCCC(=O)N[C@H](CO)C(C)C
- Activity (Hypothalamus): 36%
- Activity (Mus musculus [1]): Non-toxic
- Activity (Mus musculus [2]): Active
- Activity (Mus musculus [3]): Active
- Activity (Mus musculus [4]): 4.6%
